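Cultured in 96-well plates, cells were exposed to test compound for 48 hours across five concentrations. TGI denotes the concentration required for complete inhibition of growth.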
Assays:
Assay in all cases: NCI anticancer screen, dose series, 48 h
BT-549 breast = tested on: BT-549 breast
COLO 205 colon = tested on: COLO 205 colon
HCC-2998 colon = tested on: HCC-2998 colon
HCT-15 colon = tested on: HCT-15 colon
HT29 colon = tested on: HT29 colon
K-562 leukemia = tested on: K-562 leukemia
KM12 colon = tested on: KM12 colon
LOX IMVI melanoma = tested on: LOX IMVI melanoma
M14 melanoma = tested on: M14 melanoma
MALME-3M melanoma = tested on: MALME-3M melanoma
MDA-N = tested on: MDA-N
OVCAR-5 ovarian = tested on: OVCAR-5 ovarian
PC-3 prostate = tested on: PC-3 prostate
SF-268 CNS = tested on: SF-268 CNS
SF-295 CNS = tested on: SF-295 CNS
SK-OV-3 ovarian = tested on: SK-OV-3 ovarian
SNB-19 CNS = tested on: SNB-19 CNS
SR leukemia = tested on: SR leukemia
SW-620 colon = tested on: SW-620 colon
UO-31 renal = tested on: UO-31 renal

SMILES | TGI (BT-549 breast) [µM] | TGI (COLO 205 colon) [µM] | TGI (HCC-2998 colon) [µM] | TGI (HCT-15 colon) [µM] | TGI (HT29 colon) [µM] | TGI (K-562 leukemia) [µM] | TGI (KM12 colon) [µM] | TGI (LOX IMVI melanoma) [µM] | TGI (M14 melanoma) [µM] | TGI (MALME-3M melanoma) [µM] | TGI (MDA-N) [µM] | TGI (OVCAR-5 ovarian) [µM] | TGI (PC-3 prostate) [µM] | TGI (SF-268 CNS) [µM] | TGI (SF-295 CNS) [µM] | TGI (SK-OV-3 ovarian) [µM] | TGI (SNB-19 CNS) [µM] | TGI (SR leukemia) [µM] | TGI (SW-620 colon) [µM] | TGI (UO-31 renal) [µM]
O=C(Nc1ccccc1)c1cc(S(=O)(=O)Nc2n[nH]c(=O)[nH]2)c(SSc2cc(Cl)c(C(=O)Nc3ccccc3)cc2S(=O)(=O)Nc2n[nH]c(=O)[nH]2)cc1Cl | > 100 | > 100 | > 100 | > 100 | > 100 | > 100 | > 100 | > 100 | > 100 | > 100 | > 100 | > 100 | > 100 | > 100 | > 100 | > 100 | > 100 | > 100 | > 100 | > 100
COc1ccc2c(c1)c(=O)c1c(NCCCN(C)CCCNc3ccc4c(=O)n(CCN(C)C)c(=O)n5c6ccc(OC)cc6c(=O)c3c45)ccc3c(=O)n(CCN(C)C)c(=O)n2c31 | 2.12 | 0.803 | 0.544 | 0.617 | 1.28 | 1.11 | 1.11 | 0.161 | 2.58 | 2.42 | 1.49 | 3.63 | 0.858 | 1.88 | 3.48 | 4.98 | 2.17 | 0.255 | 0.752 | 1.01
COC(=O)c1ccc(CCC2=CC(=O)C(Br)=CC2=O)cc1 | 23.9 | 18.7 | 29.1 | 27.6 | 30.9 | 4.84 | 32.3 | 33.3 | 28.3 | 30.6 | 31.4 | 33.6 | 30.9 | 43 | 37.4 | 38 | 29.2 | > 100 | 27.1 | 29.2
COc1cc(CCNC2=CC(=O)c3cccnc3C2=O)ccc1O | 2.75 | 3 | 3.58 | 2.58 | 4.38 | 2.15 | 13.2 | 1.41 | 2.98 | 2.32 | 0.308 | 2.99 | 18.7 | 7.7 | 2.6 | 11.1 | 4.04 | 12.2 | 2.94 | 2.83
CC(C)=CCC/C(=C\CC/C(=C\CCc1ccoc1)C(=O)O)C(=O)O | > 100 | > 100 | > 100 | > 100 | > 100 | > 100 | > 100 | > 100 | > 100 | > 100 | > 100 | > 100 | > 100 | > 100 | > 100 | > 100 | > 100 | > 100 | > 100 | > 100
CCN(CC)c1ccc(/C=c2\nc(-c3ccccc3)n3c2nc2ccccc23)cc1 | 72.2 | 20.1 | 23.3 | > 100 | 5.98 | > 100 | > 100 | 26.4 | 37.9 | 52.3 | 24.6 | > 100 | 8.7 | > 100 | 45.8 | > 100 | > 100 | > 100 | > 100 | > 100
CCN(CC)c1ccc2c(c1)Oc1ccc(N(C(C)=O)c3ccccc3)cc1C21OC(=O)c2ccccc21 (stereo not given) | > 100 | > 100 | > 100 | > 100 | > 100 | > 100 | > 100 | > 100 | > 100 | > 100 | > 100 | > 100 | > 100 | > 100 | > 100 | > 100 | > 100 | > 100 | > 100 | > 100
CC1(CCc2ccccc2)CC1(Br)Br (stereo not given) | > 100 | 51.7 | 76.2 | > 100 | > 100 | 38.2 | > 100 | 37.4 | > 100 | 68.3 | > 100 | > 100 | > 100 | > 100 | > 100 | > 100 | > 100 | 41.6 | > 100 | > 100
CCOC(=O)CN=C1Nc2ccccc2C(=O)N2CSCC12 (stereo not given) | > 100 | > 100 | > 100 | > 100 | > 100 | > 100 | > 100 | > 100 | > 100 | > 100 | > 100 | > 100 | > 100 | > 100 | > 100 | > 100 | > 100 | > 100 | > 100 | > 100

— PubChem BioAssay (NCI)
